From patent publication US8722678B2 (priority 2010, dated 2014) come the findings set out here.

Where two headings read alike, the source gives them in different places.

One assay deals with Plasmopara viticola. As to conditions: in vivo.
For assay [1], the system named is Phytophthora infestans. Kind of assay: whole plant or invertebrate. Type of assay: in vivo. The conditions noted are these: for Test B rating (100 = 100% disease control, 0 = no disease control relative to the controls): in vivo.
For assay [2], the system named is Phytophthora infestans. Type of assay: in vivo.
[3] abbreviates: tomato seedlings, sprayed to run-off 17 h after inoculation, application rate not given for unstarred values (40 ppm suspension mentioned).

Turning to “1-[4-[4-[(hydroxyimino)phenylmethyl]-2-thiazolyl]-1-piperidinyl-2-[5-methyl-3-(trifluoromethyl)-1H-pyrazol-1-yl]ethanone [Compound 15]”, the “Test A rating (100 = 100% disease control, 0 = no disease control relative to the controls)” value with Plasmopara viticola is recorded as 55%. For the same compound, the “Test B rating (100 = 100% disease control, 0 = no disease control relative to the controls)” value in the assay with Phytophthora infestans [1] turned out to be 100%.

Consider “1-[4-[4-[(hydroxyimino)phenylmethyl]-2-thiazolyl]-1-piperidinyl-2-[5-methyl-3-(trifluoromethyl)-1H-pyrazol-1-yl]ethanone [Compound 16]”, for which the “Test C rating (100 = 100% disease control, 0 = no disease control relative to the controls)” value in the assay on Phytophthora infestans [2] (in vivo) was found to be 0%. Further, in the assay with Plasmopara viticola, the “Test A rating (100 = 100% disease control, 0 = no disease control relative to the controls)” value is given as 0%. The “Test B rating (100 = 100% disease control, 0 = no disease control relative to the controls)” value with Phytophthora infestans [1] is 89%.

As to `Cc1cc(C(F)(F)F)nn1CC(=O)N1CCC(c2nc(C(C=Cc3c(F)cccc3F)=NO)cs2)CC1` [Compound 11, 3-(2,6-difluorophenyl)-1-[2-[1-[2-[5-methyl-3-(trifluoromethyl)-1H-pyrazol-1-yl]acetyl]-4-piperidinyl]-4-thiazolyl]-2-propen-1-one 1-oxime], in the assay on Phytophthora infestans [2] (setting [3]), the “Test C rating (100 = 100% disease control, 0 = no disease control relative to the controls)” value is 98%. In addition, the “Test A rating (100 = 100% disease control, 0 = no disease control relative to the controls)” value with Plasmopara viticola came to 100%.

For the compound `CCOC(=O)/C(=N\O)c1csc(C2CCN(C(=O)Cn3nc(C(F)(F)F)cc3C)CC2)n1` [Compound 14], in the assay on Phytophthora infestans [2] (setting [3]), the “Test C rating (100 = 100% disease control, 0 = no disease control relative to the controls)” value stood at 9%. Also, in the assay with Plasmopara viticola, the “Test A rating (100 = 100% disease control, 0 = no disease control relative to the controls)” value amounted to 0%.

Take `CC(=O)ON=C(C=Cc1c(F)cccc1F)c1csc(C2CCN(C(=O)Cn3nc(C(F)(F)F)cc3C)CC2)n1` [Compound 23, 3-(2,6-difluorophenyl)-1-[2-[1-[2-[5-methyl-3-(trifluoromethyl)-1H-pyrazol-1-yl]acetyl]-4-piperidinyl]-4-thiazolyl]-2-propen-1-one 1-(O-acetyloxime)]: the “Test C rating (100 = 100% disease control, 0 = no disease control relative to the controls)” value in the assay with Phytophthora infestans [2] (setting [3]) is given as 99%. The “Test A rating (100 = 100% disease control, 0 = no disease control relative to the controls)” value with Plasmopara viticola is 99%.

As to `Cc1cc(C(F)(F)F)nn1CC(=O)N1CCC(c2nc(C(CCc3c(F)cccc3F)=NO)cs2)CC1` [Compound 21, 3-(2,6-difluorophenyl)-1-[2-[1-[2-[5-methyl-3-(trifluoromethyl)-1H-pyrazol-1-yl]acetyl]-4-piperidinyl]-4-thiazolyl]-1-propanone 1-oxime], in the assay on Plasmopara viticola, the “Test A rating (100 = 100% disease control, 0 = no disease control relative to the controls)” value amounted to 57%.

In the case of `CC(=NO)c1csc(C2CCN(C(=O)Cn3nc(C(F)(F)F)cc3C)CC2)n1` [Compound 10, 1-[4-[4-[1-(hydroxyimino)ethyl)-2-thiazolyl]-1-piperidinyl]-2-[5-methyl-3-(trifluoromethyl)-1H-pyrazol-1-yl]ethanone], the “Test A rating (100 = 100% disease control, 0 = no disease control relative to the controls)” value with Plasmopara viticola stood at 71%.

Take `Cc1cc(C(F)(F)F)nn1CC(=O)N1CCC(c2nc(C=NO)cs2)CC1` [Compound 8, 4-[4-[(hydroxyimino)methyl]-2-thiazolyl]-1-[[5-methyl-3-(trifluoromethyl)-1H-pyrazol-1-yl]acetyl]piperidine]: the “Test C rating (100 = 100% disease control, 0 = no disease control relative to the controls)” value in the assay on Phytophthora infestans [2] (setting [3]) is listed as 97%. Further, the “Test A rating (100 = 100% disease control, 0 = no disease control relative to the controls)” value in the assay with Plasmopara viticola turned out to be 99%.

Turning to `Cc1cc(C(F)(F)F)nn1CC(=O)N1CCC(c2nc(C(CC(O)c3c(F)cccc3F)=NO)cs2)CC1` (stereo not drawn) [Compound 13, 3-(2,6-difluorophenyl)-3-hydroxy-1-[2-[1-[2-[5-methyl-3-(trifluoromethyl)-1H-pyrazol-1-yl]acetyl]-4-piperidinyl]-4-thiazolyl]-1-propanone 1-oxime], in the assay with Phytophthora infestans [2] (setting [3]), the “Test C rating (100 = 100% disease control, 0 = no disease control relative to the controls)” value was 97%. Besides, the “Test A rating (100 = 100% disease control, 0 = no disease control relative to the controls)” value in the assay with Plasmopara viticola stood at 93%.

With `CON=C(C=Cc1c(F)cccc1F)c1csc(C2CCN(C(=O)Cn3nc(C(F)(F)F)cc3C)CC2)n1` [Compound 19, 3-(2,6-difluorophenyl)-1-[2-[1-[2-[5-methyl-3-(trifluoromethyl)-1H-pyrazol-1-yl]acetyl]-4-piperidinyl]-4-thiazolyl]-2-propen-1-one 1-(O-methyloxime)], the “Test A rating (100 = 100% disease control, 0 = no disease control relative to the controls)” value in the assay on Plasmopara viticola was 83%.

On to `Cc1cc(C(F)(F)F)nn1CC(=O)N1CCC(c2nc(C(CC(O[Si](C)(C)C(C)(C)C)c3c(F)cccc3F)=NO)cs2)CC1` (stereo not drawn) [Compound 12, 3-(2,6-difluorophenyl)-3-[[(1,1-dimethylethyl)dimethylsilyl]oxy]-1-[2-[1-[2-[5-methyl-3-(trifluoromethyl)-1H-pyrazol-1-yl]acetyl]-4-piperidinyl]-4-thiazolyl]-1-propanone 1-oxime], for which the “Test A rating (100 = 100% disease control, 0 = no disease control relative to the controls)” value in the assay with Plasmopara viticola worked out at 0%. For the same compound, the pest or weed control at 200 ppm with Phytophthora infestans [1] (Phytophthora infestans, in Solanum lycopersicum, read-out: Test B rating (100 = 100% disease control, 0 = no disease control relative to the controls)) is 40%.

As for `Cc1cc(C(F)(F)F)nn1CC(=O)N1CCC(c2nc(C=NOC(C)c3ccccc3)cs2)CC1` (stereo not drawn) [Compound 22, 2-[1-[2-[5-methyl-3-(trifluoromethyl)-1H-pyrazol-1-yl]acetyl]-4-piperidinyl]-4-thiazolecarboxaldehyde 4-[O-(1-phenylethyl)oxime]], the “Test A rating (100 = 100% disease control, 0 = no disease control relative to the controls)” value in the assay with Plasmopara viticola worked out at 97%.
